According to US20250082766A1, “TREATMENT OF BRAIN TUMORS BY TARGETING THE CHOLESTEROL PATHWAY IN ASTROCYES” (Ramot at Tel-Aviv University Ltd., priority 2022, published 2025):

What was measured:
[1] = test system: LDLR; assay: LDLR expression by immunoblot in glioma cells treated with LXR agonist; assay type: cell-based, mouse; conditions: GL261 and CT-2A cells; 24-OHC vs Mock (DMSO); FIGS. 5H-I
Experimental: FIGS. 5A-N illustrate that astrocyte-derived cholesterol supports glioma survival. (FIGS. 5A-D) Real-time changes in the ECAR (FIGS. 5A-B) and oxygen consumption rate (OCR) (FIGS. 5C-D) of GL261 glioma cells, cultured in media supplemented with full serum (FCS, fetal calf serum) or lipoprotein-deprived serum (LPDS, Lipoprotein-deficient serum) for 18 hours and measured using Seahorse. Oligo, oligomycin; FCCP, carbonyl cyanide4-(trifluoromethoxy) phenylhydrazone; R/A, rotenone plus antimycin A; 2-DG, 2-deoxy-d-glucose. Glycolysis, glycolytic capacity and glycolytic reserve were extracted from the ECAR reading, and basal respiration, adenosine triphosphate (ATP) production, Maximal respiration, and spare respiratory capacity were determined based on OCR. […] (FIG. 5E) Percentage of cell death of GL261 and CT-2A glioma cells, or primary astrocytes, cultured in FCS or LPDS for 5 days; as determined by Annexin-V assay (n=5 independent experiments). […] Representative flow cytometry plots of Annexin-V/DAPI staining from each group are shown in FIG. 5F and quantification analyses of cholesterol rescue are in FIG. 5G (n=5 biologically independent experiments). […] (FIG. 5N) quantification analyses of human U87EGFRvIII (U87) glioma cells co-cultured with human primary astrocytes for 5 days (n=3 biologically independent experiments). […]

[2] = test system: GL261 and CT-2A glioma cells; assay: Cell viability assay (Annexin V/DAPI FACS) of glioma cells; assay type: cell-based, mouse; conditions: 24-OHC for 72 hours; GL261 and CT-2A glioma cell lines; FIGS. 5J-K
Experimental: FIGS. 5A-N illustrate that astrocyte-derived cholesterol supports glioma survival. (FIGS. 5A-D) Real-time changes in the ECAR (FIGS. 5A-B) and oxygen consumption rate (OCR) (FIGS. 5C-D) of GL261 glioma cells, cultured in media supplemented with full serum (FCS, fetal calf serum) or lipoprotein-deprived serum (LPDS, Lipoprotein-deficient serum) for 18 hours and measured using Seahorse. Oligo, oligomycin; FCCP, carbonyl cyanide4-(trifluoromethoxy) phenylhydrazone; R/A, rotenone plus antimycin A; 2-DG, 2-deoxy-d-glucose. Glycolysis, glycolytic capacity and glycolytic reserve were extracted from the ECAR reading, and basal respiration, adenosine triphosphate (ATP) production, Maximal respiration, and spare respiratory capacity were determined based on OCR. Data are representative of two independent experiments (n=6 technical replicates per experiment). (FIG. 5E) Percentage of cell death of GL261 and CT-2A glioma cells, or primary astrocytes, cultured in FCS or LPDS for 5 days; as determined by Annexin-V assay (n=5 independent experiments). […] Representative flow cytometry plots of Annexin-V/DAPI staining from each group are shown in FIG. 5F and quantification analyses of cholesterol rescue are in FIG. 5G (n=5 biologically independent experiments). (FIGS. 5H-K) Representative images and quantification of LDLR expression (Immunoblot, FIGS. 5H-I) and cell death via FACS analysis of Annexin V/DAPI staining (FIGS. 5J-K) in response to endogenous LXR agonists (24-OHC) or Mock (DMSO) treatment in GL261 and CT-2A cells (n=3 biologically independent experiments). […] (FIGS. 5L-M) Representative flow cytometry plots of murine GL261 and CT-2A glioma cells co-cultured for 5 days with primary mouse astrocytes are shown in FIG. 5L and quantification analyses in FIG. 5M (n=4 biologically independent experiments). (FIG. 5N) quantification analyses of human U87EGFRvIII (U87) glioma cells co-cultured with human primary astrocytes for 5 days (n=3 biologically independent experiments). […]

[3] = test system: tumours with EGFR or IDH1 mutations; conditions: patient-derived GBM xenograft mice; cited from earlier work
[4] = test system: glioma; conditions: OXPHOS-targeting drugs; cited from earlier work
[5] = molecular target: cholesterol transporter ABCA1 (Homo sapiens, UniProt O95477); conditions: cited from earlier work
Chain of cholesterol transporter ABCA1 (O95477 whole entry): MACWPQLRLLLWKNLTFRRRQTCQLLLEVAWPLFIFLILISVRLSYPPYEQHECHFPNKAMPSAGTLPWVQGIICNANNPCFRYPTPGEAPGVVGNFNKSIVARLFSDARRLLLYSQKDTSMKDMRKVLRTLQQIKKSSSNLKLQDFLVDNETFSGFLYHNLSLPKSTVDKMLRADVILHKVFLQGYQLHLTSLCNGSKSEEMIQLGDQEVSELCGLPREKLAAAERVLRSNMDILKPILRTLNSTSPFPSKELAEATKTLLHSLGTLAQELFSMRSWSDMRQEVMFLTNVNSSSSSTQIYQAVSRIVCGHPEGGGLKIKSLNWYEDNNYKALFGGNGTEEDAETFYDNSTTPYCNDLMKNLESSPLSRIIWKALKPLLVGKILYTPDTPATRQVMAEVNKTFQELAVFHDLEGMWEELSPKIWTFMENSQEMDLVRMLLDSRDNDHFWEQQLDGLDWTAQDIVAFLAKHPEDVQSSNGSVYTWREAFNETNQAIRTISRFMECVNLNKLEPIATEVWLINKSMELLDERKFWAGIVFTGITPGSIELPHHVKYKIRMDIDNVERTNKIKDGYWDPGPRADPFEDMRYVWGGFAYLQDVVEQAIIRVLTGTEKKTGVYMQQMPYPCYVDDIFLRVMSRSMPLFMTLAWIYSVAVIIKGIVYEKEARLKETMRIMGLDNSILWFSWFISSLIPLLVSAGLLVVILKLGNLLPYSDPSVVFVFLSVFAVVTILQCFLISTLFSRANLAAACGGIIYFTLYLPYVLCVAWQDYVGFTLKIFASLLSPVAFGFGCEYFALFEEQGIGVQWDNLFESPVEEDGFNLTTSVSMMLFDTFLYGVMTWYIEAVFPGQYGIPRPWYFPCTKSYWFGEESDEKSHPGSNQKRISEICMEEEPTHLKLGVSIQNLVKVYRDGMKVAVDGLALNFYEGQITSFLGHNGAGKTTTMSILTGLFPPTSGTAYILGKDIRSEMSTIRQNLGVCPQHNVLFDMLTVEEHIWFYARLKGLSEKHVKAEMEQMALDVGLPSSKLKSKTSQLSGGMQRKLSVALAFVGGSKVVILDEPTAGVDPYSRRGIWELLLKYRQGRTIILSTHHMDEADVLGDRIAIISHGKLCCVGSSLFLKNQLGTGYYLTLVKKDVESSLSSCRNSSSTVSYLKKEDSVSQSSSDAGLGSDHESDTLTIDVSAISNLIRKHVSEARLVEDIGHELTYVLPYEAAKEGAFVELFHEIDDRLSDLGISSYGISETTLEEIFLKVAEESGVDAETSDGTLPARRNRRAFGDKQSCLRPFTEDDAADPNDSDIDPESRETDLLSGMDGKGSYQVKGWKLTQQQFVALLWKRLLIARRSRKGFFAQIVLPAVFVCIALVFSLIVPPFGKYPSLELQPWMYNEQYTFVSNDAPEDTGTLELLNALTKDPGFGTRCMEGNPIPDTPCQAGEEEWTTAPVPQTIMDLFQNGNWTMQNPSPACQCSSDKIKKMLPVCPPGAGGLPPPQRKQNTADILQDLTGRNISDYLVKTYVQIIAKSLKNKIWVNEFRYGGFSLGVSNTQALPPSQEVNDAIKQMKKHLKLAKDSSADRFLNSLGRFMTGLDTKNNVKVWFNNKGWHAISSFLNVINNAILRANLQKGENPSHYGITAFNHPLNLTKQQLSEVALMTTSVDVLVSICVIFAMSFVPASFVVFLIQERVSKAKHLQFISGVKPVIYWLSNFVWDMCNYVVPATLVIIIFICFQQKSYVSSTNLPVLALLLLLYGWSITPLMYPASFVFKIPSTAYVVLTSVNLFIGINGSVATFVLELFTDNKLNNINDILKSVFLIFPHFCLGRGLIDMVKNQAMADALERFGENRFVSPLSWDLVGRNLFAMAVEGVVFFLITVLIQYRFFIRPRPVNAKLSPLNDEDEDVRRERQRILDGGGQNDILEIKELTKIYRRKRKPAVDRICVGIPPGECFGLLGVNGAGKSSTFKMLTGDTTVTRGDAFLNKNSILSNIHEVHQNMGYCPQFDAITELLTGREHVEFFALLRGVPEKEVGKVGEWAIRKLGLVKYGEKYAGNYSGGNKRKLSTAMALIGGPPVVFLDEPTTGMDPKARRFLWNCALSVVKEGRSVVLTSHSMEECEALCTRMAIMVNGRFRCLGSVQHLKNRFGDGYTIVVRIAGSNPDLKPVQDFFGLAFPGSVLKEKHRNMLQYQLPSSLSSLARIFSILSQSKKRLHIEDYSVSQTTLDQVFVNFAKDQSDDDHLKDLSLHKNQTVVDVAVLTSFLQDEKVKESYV

[6] = test system: murine GL261 glioma cells co-cultured with astrocytes; assay: LPDS-induced glioma cell death in astrocyte-glioma co-cultures with cholesterol-lowering drugs, Annexin-V assay; assay type: cell-based, mouse; conditions: cholesterol-deprived (LPDS) astrocyte-GL261 co-cultures, FIGS. 15A-D, n=2
Source text: FIGS. 15A-D illustrate that cholesterol-lowering drugs inhibit astrocyte-mediated rescue of glioma cells from cholesterol deprivation. Analysis of LPDS-induced glioma cell death, co-cultured with astrocytes, in the presence of absence of cholesterol-lowering drugs, by Annexin-V assay. (FIGS. 15A-C) Representative flow cytometry plots of murine GL261 treated with statins (FIG. 15A) or ABCA1 inhibitors Probucol (FIG. 15B), and Glyburide (FIG. 15C), and this quantification analyses (FIG. 15D). n=2 biologically independent experiments.
Moreover, statins and probucol, or glyburide, target different nodes in the cholesterol efflux mechanism (synthesis and extracellular export). Therefore, the present inventor further tests whether the combinations of the two drug groups would have a synergistic effect on glioma viability.

[7] = test system: GL261 glioma (GBM); assay: Primary GBM model: GL261 intracranially implanted mice treated with Probucol; assay type: in vivo, mouse; conditions: summary statement on ABCA1 inhibitors; FIGS. 16A-E
Experimental: (FIG. 16A) Illustration of the experimental design for primary and recurrent GBM models. (FIGS. 16B-D) WT mice were intracranially (IC) implanted with GL261 cells. Tumor-bearing mice were treated daily, starting at day 10, with Probucol (30 mg/kg) or vehicle. (FIG. 16B) Tumor growth curve as determined by IVIS, (FIG. 16C) mice weight loss, and (FIG. 16D) Kaplan-Meier curves assess overall survival. p-value by Two-way ANOVA. Data represent Mean±SEM, 8 mice/group. (FIG. 16E) Illustration of the predicted effects of probucol or glyburide in the different models/disease stages.
For intracranial mouse glioma, mice were anesthetized, positioned in a Stereotaxic Alignment System, and injected with 1.5×10^4 GL261 or CT-2A cells in 2 μl of DMEM. Injections were made to the right frontal lobe, approximately 2.5 mm lateral and 0.1 mm caudal from bregma at a depth of 3 mm. In-vivo bioluminescence imaging, following XenoLight D-luciferin Potassium Salt administration (150 mg/kg) i.p. administration, was determined using IVIS Spectrum system (PerkinElmer). Ganciclovir (GCV, Cymevene, Roche #SAP-10051872; 25 mg/kg), Diphtheria-toxin (DT, Sigma-Aldrich, #D0564; 1100 ng/mice), or vehicle control (PBS) were administered daily following tumor establishment (day 10), as previously described (Mayo, L., et al. Nat Med (2014) 20: 1147-1156). CD8^+ T cell depletion was performed using an anti-CD8 monoclonal antibody ([…], Bioxcell) or an isotype control monoclonal antibody (2A3, Bioxcell), as previously described (Takenaka, M. C. et al. Control of tumor-associated macrophages and T cells in glioblastoma via AHR and CD39. Nat Neurosci 22, 729-740 (2019)). GBM-bearing mice were intraperitoneally injected (0.1 mg/mouse) with an anti-CD8 or an isotype control mAbs, 1 day before, and 7 days after, GCV administration. CD8 T-cell depletion was validated by FACS analysis using a Sony SH800 FACS instrument (Sony Biotechnology). Data analysis was performed using FlowJo v10 (TreeStar, USA). The following reagents were used for analysis: anti-CD45 (1:100; 30-F11, Biolegend, #103106), anti-CD3[…] (1:50; 145-2C11, Biolegend #100335), and anti-CD8a (1:100; 53-6.7, Biolegend, #100765).
To investigate this hypothesis, C57Bl/6 mice are implanted with GFP^+ luciferase-expressing glioma cells (GL261 or CT-2A), using two subtype models—primary or recurrent GBM/brain tumor resection (as illustrated in FIG. 16A), and are treated daily with probucol, glyburide, or vehicle control, with or without a potent statin (e.g., simvastatin as shown in FIG. 15A). The dosage of the different drugs is optimized based on FDA guidelines for conversions from human-accepted dosages (Table 5 below).
In the primary GBM model (pGBM)—10 days after tumor implantation, the mice are treated with cholesterol-lowering drugs (FIG. 16A). In the recurrent GBM model (rGBM), 12-14 days after inoculation of the mice with the tumor cells, the visible tumor(s) are surgically removed, based on GFP expression, under a stereoscope. The mice are then allowed to recover for a week and then are treated with cholesterol-lowering drugs (FIG. 16A). Of note, tumor formation or recurrence is monitored by bioluminescence (BLI) signals from the tumor cells on in-vivo imaging system (IVIS) spectrum and quantified with Living Image software. Mice are monitored for tumor growth, peritumoral brain edema formation, and mouse survival until the experimental endpoint (extreme lethargy or body weight reduction of greater than 20%), or are euthanized seven days after treatment with the cholesterol-lowering drugs to assess tumor burden, angiogenesis, BBB stability, and immunomodulatory activity in-situ. Tumor volume is evaluated in-vivo by determining tumor BLI, and by histopathology analysis postmortem. Peritumoral brain edema is evaluated in-vivo using IVISense™ Edema (Superhance™ 680) fluorescent probe. […]

[8] = test system: glioma; conditions: experimental glioma mouse models; cited from earlier work
[9] = test system: LDLR; assay: LDLR levels (immunoblot) in GL261 cells treated with conditioned media of PCSK9-transduced astrocytes; assay type: cell-based, mouse; conditions: astrocyte-conditioned media (wild type PCSK9-encoding vs empty lentivirus), 24 hours; FIG. 21B
Experimental: FIGS. 21A-D illustrate that PCSK9 overexpression in the cancer microenvironment halts glioma progression. (FIG. 21A) Box plot analysis of TCGA gene expression for PCSK9 in normal (Norm; n=207), GBM patients (n=163), or low-grade glioma (LGG, n=518). n represents the number of patients per group. (FIG. 21B) Astrocytes were transduced with wild type PCSK9-encoding or empty lentivirus, and 24 hours later, the media was collected and transferred to glioma cells. Representative immunoblot analyses comparing LDLR and ACTIN levels in GL261 glioma cells treated with the astrocyte-conditioned media for 24 hours. (n=2 biologically independent experiments). […] PCSK9-encoding or empty lentiviruses were injected into the TME of GL261-bearing mice 9 and 15 days after tumor implantation. (FIG. 21C) Analysis of tumor size, based on tumor bioluminescence. (FIG. 21D) Kaplan-Meier curves assessing overall survival of these groups. Data are representative of two independent experiments with n=6 mice/group. Data are shown as mean±s.e.m. P values were determined by two-sided Student's t-tests (FIG. 21A), two-way ANOVA (FIG. 21C), or Log rank (Mantel-Cox) test (FIG. 21D). *P<0.05, **P<0.01, ***P<0.001.
Cells were lysed in RIPA buffer supplemented with protease inhibitors (Cell Signaling). […] Quantification was done using Image Studio Lite software version 5.2 (LI-COR Biosciences).

CC(C)[C@@H](O)CC[C@@H](C)[C@H]1CC[C@H]2[C@@H]3CC=C4C[C@@H](O)CC[C@]4(C)[C@H]3CC[C@]12C [24-OHC, 24(S)-hydroxycholesterol]
LDLR expression (degradation) [1]: dose-dependent LDLR degradation | glioma cell death [2]: dramatic cell death

CCc1n(CC(=O)O[C@@H]2C[C@H](C)CC[C@H]2C(C)C)c2ccccc2[n+]1C.[Cl-] [Gboxin]
growth of tumours [3]: suppresses the growth of tumours | glioma proliferation and cell death [4]: inhibit glioma proliferation and induce cell death

COc1ccc(Cl)cc1C(=O)NCCc1ccc(S(=O)(=O)NC(=O)NC2CCCCC2)cc1 [Glyburide]
ABCA1 inhibitor potency [5]: potent | attenuation of the astrocyte-dependent rescue of glioma cells from cholesterol deprivation (glioma cell death), relative efficiency [6]: the most potent | survival of subjects having GBM in-vivo [7]: prolonging survival | tumor size of subjects having GBM in-vivo [7]: decreasing tumor size | weight loss of subjects having GBM in-vivo [7]: preventing weight loss

FC(F)(F)c1ccc(CNc2ccc(Cc3c[nH]c4ncc(Cl)cc34)cn2)cn1 [PLX3397]
glioma expansion [8]: reduces glioma expansion

PCSK9: wild type PCSK9 secreted into astrocyte-conditioned medium by lentivirus-transduced astrocytes
levels of LDLR in GL261 glioma cells [9]: decreased levels of LDLR
